Patent US20220218736A1, “NEW THERAPY” (INDEX PHARMACEUTICALS AB, priority 2018, published 2022)
Oligonucleotides are written 5' to 3', each unit as a sugar letter and its base; * is a phosphorothioate linkage, no mark a phosphodiester; rarer units and linkages stand in square brackets, end groups in braces. Plain capitals give the bases only. d = 2'-deoxy (DNA)

Tests used:
[1] = tested on: patient with ulcerative colitis refractory to steroids and immunosuppressive therapies; test: Compassionate use program, patient p12; colitis activity index (CAI) course; type: in vivo, human
From the text: This example relates to unpublished experimental data that was collected as part of a compassionate use program. A diagnosis of ulcerative colitis was established based on clinical, endoscopic and histological features. Written consent was received for the patient and the treatment approved by the relevant local ethics committee.
The patient was a person who was first diagnosed with ulcerative colitis 5 years previously and who had become refractory to steroids and immunosuppressive therapies (GCS, infliximab and natural IFN-β). In the form of an experimental add-on therapy, relapses were treated for 4 years with natural Interferon-beta (Fiblaferon). […] A severe relapse in January 2010 was treated with high doses of steroids in combination with azathioprine and 5-ASA without success. […] The treatment with a high dose of steroid in combination with Infliximab had some effect in reducing the CAI score from 14 to 9 in March 2010. However, the subject was still in a very active state of the disease. […]
The patient received 3 doses of 30 mg cobitolimod diluted in 50 mL of sterile water at 4 week intervals as an add on to current therapies. Application of drug was performed during colonoscopy with the aid of a spraying catheter inserted through the colonoscopies biopsy channel and delivered approximately to the upper portion of the descending colon or to the transverse region.
Depicted is the colitis activity index [CAI] against the time in months. […] 2011 when the treating physician last contacted all the patients to follow-up on the treatments.

[2] = tested on: chronic DSS-induced colitis; test: Chronic DSS-induced mouse model of colitis; colon length and weight/length ratio; type: in vivo, C57BL/6 mice; details: Day 30; for colon-shortening effects of DSS (colon length): Days 4-28 every 4 days
From the text: The objective of this study was to test the efficacy of cobitolimod as a maintenance therapy in the chronic DSS-induced mouse model of colitis.
37 male C57BL/6 mice were enrolled in the chronic DSS-induced colitis study and housed for a stabilization period of 5 days prior to the study. All animals were housed in HEPA-ventilated cages with sani-chips bedding. Domes and sterile cotton scratch pads were provided for enrichment. Fluorescent lighting was provided on a 12-hour cycle. Temperature and humidity were monitored and recorded daily and maintained to 20-23° C. temperature, and 30-70% relative humidity. 2018S 18% protein rodent maintenance diet was provided ad libitum.
Cobitolimod was diluted in saline either to 125 μg/100μ1 (1.25 μg/μl, dose 1) or 500 μg/100 μl (5 μg/μl, dose 2) in the beginning of the experiment. The solution was aliquoted and kept at 4° C. for the duration of the experiment. At each administration day 100 μl was administered to the mice rectally. FTY-720 (S1P1 receptor inhibitor) was dissolved in dH2O and served as positive control. For a dose of 1 mg/kg, using an average body weight of 30 grams, the compound was prepared and 100 μL orally dosed daily to each animal.
9 week old mice received 2% DSS dissolved into autoclaved water ad libitum (Group 2-5, n=8 each per group) for 5 days, and were switched to autoclaved drinking water for the next five days. This cycle was repeated, alternating between DSS treatment and autoclaved water, every five days for a duration of 30 days in total. During each 5-Day DSS treatment phase, fresh 2% DSS was provided on the third day of the five-day cycle. Group 1 (n=5) served as a control (naïve mice) that received only autoclaved water ad libitum throughout the study. On Day 4, mice in Group 3 (n=8) were orally dosed with FTY-720 as positive control (Group 3, n=8) and continued daily dose until end of the study. Also starting on Study Day 4, animals were dosed with Vehicle (Group 2, […]), or with two different doses of cobitolimod (Group 4 and Group 5, n=8 per group) intrarectally. […] Groups 2, 4, and 5 were dosed again on Days 8, 12, 16, 20, 24, and 28.
Body weight, stool consistency, stool blood, body condition score, and physical health were recorded on dosing days, and two days after each dosing day from at Day 0 through termination on Study Day 30. […] Animals that lost greater than 20% of their pre-treatment body weight were monitored and fed diet/hydro gel for 72 hrs. No animals were terminated due to prolonged body weight loss, or signs of pain and distress due to disease.
The study was terminated on Day 30, and necropsy was performed on all animals. Spleens were weighed and then discarded. Colon length and weight was recorded, and the weight/length ratio calculated for each animal. […]

[3] = tested on: patients with moderate-to-severe active UC; test: Randomized, double-blind, placebo-controlled clinical trial of cobitolimod; symptomatic remission; type: in vivo, human
Description: In this randomized, double-blind, placebo-controlled trial, 131 patients with moderate-to-severe active UC were randomized to receive two single doses of the oligonucleotide cobitolimod [30 mg] or placebo administered topically during lower GI endoscopy at baseline and Week 4. The primary endpoint was clinical remission, defined as Clinical Activity (Rachmilewitz) Index [CAI]≤4, at Week 12. Secondary endpoints included mucosal healing and symptomatic remission of key patient-reported outcomes [absence of blood in stool and weekly stool frequency <35].
Eligible patients were adults with moderate to severely active ulcerative colitis with a Clinical Activity Index [CAI] of ≥9 and an endoscopic Mayo score of ≥2, despite treatment with glucocorticosteroids [GCS] [prednisolone] equivalent ≥10 mg/day] for ≥2 weeks prior to inclusion, and previously having failed or been intolerant to treatment with mesalazine ≥2.4 g/day for ≥4 weeks, GCS with at least 0.75 mg/kg as a starting dose, azathioprine or mercaptopurine for ≥3 months, and/or one adequate treatment course of a TNF-α inhibitor. Patients may have tried treatment with cyclosporine or tacrolimus before the trial. Four patients in the placebo group [9.3%] and 5 patients in the cobitolimod group [6.2%] had used cyclosporine prior to the study start, but not in the study.
During the trial, patients could be taking sulfasalazine, aminosalicylates, or thiopurines, and should be on oral GCS at stable doses. Concurrent therapies with cyclosporine, tacrolimus or TNF-α inhibitors during the trial or in the 4 weeks before enrolment, or antibiotics or non-steroidal anti-inflammatory drugs [NSAIDs] in the 2 weeks before enrolment were not permitted.
Eligible patients were randomized in a 2:1 ratio to receive administration of cobitolimod via endoscopy [30 mg] at Week 0 and 4, or matching placebo diluted in 50 mL of sterile water after adequate bowel cleaning for stool content. The application was done proximally to the site of mucosal inflammation, or in the transverse section of the colon in the event of extensive colitis, using a spray catheter during endoscopy. Patients were asked to remain recumbent for 2 h after administration. Patients were followed up with visits after 1, 4, 8, 12, 22, and 52 weeks. At Weeks 0, 4, and 12, patients underwent endoscopic evaluation and biopsies were taken from the most inflamed mucosal area. ICON [Texas, USA] produced the randomization code by a computer-generated procedure, which used the method of randomly permuted blocks. Oral GCS treatment was mandatory at a stable daily dose of >10 mg initiated at least 2 weeks prior to inclusion. Steroid tapering was done to a standard tapering schedule according to European Crohn's and Colitis Organisation [ECCO] guidelines when the patient had reached clinical remission, the earliest at Week 12.
The primary endpoint was induction of clinical remission at Week 12, defined as a CAI score of ≤4. […] Secondary endpoints included mucosal healing [endoscopic Mayo sub-score ≤1, endoscopies not centrally read]; clinical remission at Weeks 1, 4, 8, 22 and 52; clinical remission and mucosal healing; symptomatic remission [defined as absence of blood in stool and weekly stool frequency of <35]; histological Geboes score at Week 4 and 12 as assessed by a single trial histopathologist; time to colectomy; and quality of life based on the inflammatory bowel disease questionnaire [IBDQ] and the 36-item short-form survey [SF36] score. Post hoc, the combined score for subjects who achieved both symptomatic remission and mucosal healing was defined.

[4] = second multi-dose regime, until March 2011

## Infliximab: TNF-α inhibitor approved for the treatment of moderate to severe ulcerative colitis [reference compound]
[1]; high dose of steroid in combination with Infliximab, reduced from 14, March 2010
  CAI score after treatment: 9
[1]; one dose at the end of January, event in February 2010
  adverse event after treatment: severe salmonellosis with septicemia

## 5′-G*G*A*ACAGTTCGTCCAT*G*G*C-3′ (SEQ ID NO:1) (DNA dG*dG*dA*dAdCdAdGdTdTdCdGdTdCdCdAdT*dG*dG*dC) [cobitolimod]
[2]; 125 μg intrarectally
  colon-shortening effects of DSS (colon length): significantly reduced
  colonic weight/length ratio: decreased
[2]; 500 μg intrarectally
  colon-shortening effects of DSS (colon length): reduced
  colonic weight/length ratio: decreased
[3]; week 4
  delta between active drug and placebo, symptomatic remission: 18.1%
[3]; week 4, 30 mg at week 0, topically during endoscopy
  percentage of patients in symptomatic remission: 32.1%
[3]; week 8
  delta between active drug and placebo, symptomatic remission: 16.8%
[3]; week 8, 30 mg at weeks 0 and 4
  percentage of patients in symptomatic remission: 28.4%
[3]; week 8 as compared to week 4
  decrease in percentage of patients in remission: 3.7%
[3]; week 12
  delta between active drug and placebo, symptomatic remission: 11.8%
[3]; week 12, 30 mg at weeks 0 and 4, no dose at week 8
  percentage of patients in symptomatic remission: 23.5%
[3]; week 12 as compared to week 8
  decrease in percentage of patients in remission: 4.9%
[1]; first multi-dose regime (May, June and July)
  time patient kept in remission by repeat dosing: 3 months
[1]; first multi-dose regime, after week 4, with last dose and steroid tapering
  time complete clinical remission was further maintained: two
[1]; one week after first 30 mg dose, add-on to current therapies
  drop in the CAI score: 4 points
[1]; second multi-dose regime started 25 Aug. 2010
  time to clinical remission: ≤ 4 weeks
[1]; [4]
  time complete clinical remission was maintained: 5 months
  time patient kept in remission by repeat dosing: over five
[1]; week 4 of first multi-dose regime, with continued steroid tapering
  remission status: complete remission
[1]; week 8 of second multi-dose regime
  remission status: complete clinical remission
